Test: Human HepG2 cell viability assay in 384 well format
Format: toxicity, cell-based
Parameters: dose 125 nL, time 70.5 hour; cytotoxicity at 70.5 h: concentration not given beside the values
Settings: HepG2 cells, read-out: Inhibition

SMILES	cytotoxicity at 70.5 h
Cc1cc(-c2ccc(C(=O)O)cc2)nc(C2CCN(C(C)C)CC2)n1	0.538%
O=S(=O)(N1CCOCC1)N1CCC(Oc2cnccn2)CC1	0.596%
CN1CCCCC[C@@H]2[C@@H]1[C@H](c1ccccc1)CN2C(=O)c1ccccn1	-1.6%
Cn1ccc(C(=O)N2CCOC(c3ccc(C(N)=O)cn3)C2)n1 (stereo unspecified)	0.762%
CN1CC(c2cc(O)nc(NCc3ccccc3Cl)n2)CC1=O (stereo unspecified)	-2.82%
CC(=O)N1CCCC1c1nc(C)cc(-c2ccc(F)cc2)n1 (stereo unspecified)	-1.51%
Cn1nc(C2CN(C(=O)c3ccncc3)C2)c2nccnc21	13.9%
CC(=O)N1CCC(c2nccnc2-c2ccc(C(=O)O)cc2)CC1	20%
COc1ccc(CN(C)[C@@H]2CN(C(=O)c3ccccc3)C[C@H]2O)cc1	-2.29%
CCCN(C(=O)c1ccncc1)c1nc2c(s1)CCc1c-2cnn1C	18.2%
COCCN(C(=O)c1cnccn1)c1nc2c(s1)CCc1c-2cnn1C	7%
CCCn1cc(CN2CCCC2c2nccc(CN(C)C)n2)cn1 (stereo unspecified)	21.3%
Cc1nc2c(c(=O)[nH]1)CCN(C(=O)c1cccc3nccnc13)C2	0.0996%
O=C(c1cccnc1)N1CCc2c(nc(N3CCCC3)[nH]c2=O)C1	-4.95%
O=C(c1ccco1)N1CCC(n2nc(-c3cccs3)ccc2=O)CC1	-5.47%
O=C(c1ccco1)N1CCC(n2nc(-c3ccco3)ccc2=O)CC1	-3.82%
O=C(C1CCCCC1)N1CCC(n2nc(-c3ccco3)ccc2=O)CC1	-0.841%
Cc1nc(O)c2nnn(C[C@H]3CCCN3C(=O)c3ccccc3F)c2n1	-0.74%
O=C(O)CCc1cccc(C2CCCN2Cc2cccc(Cl)c2)n1 (stereo unspecified)	-0.284%
CN1CCC(c2cccc(CCC(=O)NCC(N)=O)n2)CC1	-5.22%
Cn1cc(C(=O)N2CCCC(c3ccncc3)C2)cn1 (stereo unspecified)	-7.32%
CN1CCCC[C@@H]2[C@H]1[C@@H](c1ccccc1)CCN2C(=O)c1ccccn1	-9.11%
CCCC(=O)NCCc1cc(N2CCN(C(C)=O)CC2)nc(C2CC2)n1	-6.31%
CNC(=O)C1(c2cnccn2)CCCN1C(=O)c1ccccc1C (stereo unspecified)	15.3%

SMILES	cytotoxicity at 70.5 h
Cc1nnsc1C(=O)N1CC[C@H](c2ccccc2)[C@@H]2[C@H]1CCCCN2C	-3.09%
Cc1cc(C(=O)N2CCCC2c2nc(C)cc(O)n2)on1 (stereo unspecified)	-8.09%
CCc1c(C)nc2cc(C3CCN(Cc4cccc(F)c4)C3)nn2c1O (stereo unspecified)	-7.92%
CCc1c(C)nc2cc(C3CCN(Cc4cccnc4)C3)nn2c1O (stereo unspecified)	-5.28%
Cc1n[nH]cc1CNCC1(c2ccccc2Cl)CCOCC1	-4.88%
CCCN(CC)Cn1ncc2cn(-c3ccccc3)nc2c1=O	-2.92%
NC(=O)CC1CCN(S(=O)(=O)c2cnn(-c3ccccc3)c2)CC1	-5.73%
NC(=O)C1CCN(S(=O)(=O)c2cnn(-c3ccccc3)c2)C1 (stereo unspecified)	-3.49%
CCN(Cc1ccc(C#N)cc1F)C(=O)CN(C)CC(N)=O	-4.58%
CC(c1nc(C2CC2)no1)N1CCN(CCS(C)(=O)=O)CC1 (stereo unspecified)	-4.19%
COc1ccc(Cl)cc1NCC(=O)N(Cc1ccncc1)C1CC1	15.5%
CC(C)(C)CCS(=O)(=O)NCCc1csc(N2CCCC2)n1	-2.83%
CS(=O)(=O)CCNC(=O)NCCc1cc2ccccc2o1	-4.01%
OC1(CNc2ccc(Br)cn2)CCOCC1	-2.5%
CNS(=O)(=O)CC1CCCN1c1ccc(Cl)cn1 (stereo unspecified)	-1.45%
Cc1csc(CN(C)C2CCN(c3sccc3C#N)C2=O)n1 (stereo unspecified)	16%
CCCc1noc(C(C)N2CCN(CCn3ccccc3=O)CC2)n1 (stereo unspecified)	-2.24%
CCS(=O)(=O)NCCNC(C)(C)c1nc(C)cs1	-2.97%
CCCN(C(=O)CN1CCN(CCO)CC1)C1=CCCCC1	-0.879%
CCN(C(=O)CN1CCN(CC(C)O)CC1)C1=CCCCC1 (stereo unspecified)	-3.37%
COc1c(C2CCCN2c2ncnc3sccc23)c(C)nn1C (stereo unspecified)	-2.24%
COc1c(C2CCCN2c2ncnc3c2cnn3C)c(C)nn1C (stereo unspecified)	-5.32%
CC(C)c1cc(C(=O)N2CCc3ccccc3C2C(=O)O)nn1C (stereo unspecified)	-1.42%
CCC(=O)NCC(=O)N(C)C(c1ccc(Cl)cc1)c1cccnc1 (stereo unspecified)	-1.51%

SMILES	cytotoxicity at 70.5 h
CN(Cc1ccco1)C(=O)CN1C(=O)c2ccccc2C1=O	-2.38%
O=C1NCCCCC1Sc1ccc(F)c(F)c1 (stereo unspecified)	-13.1%
Cn1nc2c(c1NC(=O)c1cccs1)CCC2	-12.2%
CN(Cc1cccs1)C(=O)CN1C(=O)c2cc(Cl)c(Cl)cc2C1=O	-13.1%
Cc1nc(NC2CCN(C(=O)C3CC3)CC2)c2cnn(C)c2n1	-11.5%
COCCNC(=O)c1ccc(NCc2c(C)noc2C)cc1Cl	-6.64%
NC(=O)CCN(CC(=O)NCc1cccs1)c1ccc(F)cc1	-6.81%
CC(NC(=O)CN(C)C(C)C)c1ccc(Oc2cccnc2)c(F)c1 (stereo unspecified)	-4.91%
CSCC(=O)N1CCOC(c2nc(C)n[nH]2)C1 (stereo unspecified)	-12.3%
CS(=O)(=O)CCCN1CCN(C(C#N)c2ccccc2)CC1 (stereo unspecified)	0.393%
CCS(=O)(=O)NCCN1CCN(C(C#N)c2ccccc2)CC1 (stereo unspecified)	-9.85%
CC(C)C1CN(C(=O)c2cc(F)cc3[nH]cnc23)CCS1 (stereo unspecified)	-2.35%
CC1(C)CCN1C(=O)c1cc(F)cc2[nH]cnc12	-9.74%
CNC(=O)c1ccc(CN2CCN(C3=NCC(C)(C)S3)CC2)cc1	17.7%
COC(=O)c1ccc(NCc2csc(C)n2)cc1Cl	-6.69%
CN(Cc1ccsc1)C(=O)CNC(=O)N1CCc2ccccc2C1	-7.67%
CN(Cc1ccccn1)C(=O)CNC(=O)N1CCc2ccccc2C1	-10.7%
COc1ccc(F)cc1CN(CC(N)=O)C(C)C	-3.68%
CC(C(N)=O)N1CCN(c2ncc(Br)cn2)CC1 (stereo unspecified)	0.267%
Cc1noc(C(C)C)c1C(=O)N1CCC(n2cccn2)CC1	13.2%
COc1ccc(Cl)cc1CN(CC(N)=O)C(C)C	-4.98%
Cc1ccc(C)c(CN(CC(N)=O)C(C)C)c1	-1.28%
Cc1noc(C)c1S(=O)(=O)N1CCC(n2cccn2)CC1	-5.3%
CCN(Cc1cccnc1)C1CCN(c2ccccc2)C1=O (stereo unspecified)	-3.8%

SMILES	cytotoxicity at 70.5 h
Cc1c(NC(=O)N(C)CCO)cccc1OC1CCCC1	-7.3%
Cc1nn(C)c(C)c1C1CCCN1C(=O)c1cc(C(N)=O)cs1 (stereo unspecified)	-6.04%
CC(C)c1ccccc1OCCNC(=O)N1CCC(CC(N)=O)CC1	-4.04%
COCCC(=O)N(CCC#N)c1ccc(C)c(C)c1	-3.89%
N#CCCN(C(=O)CCc1cscn1)c1ccc2c(c1)OCCO2	16.5%
CCOc1cc(F)ccc1NC1CCN(CC(F)(F)F)C1=O (stereo unspecified)	-0.756%
Cc1cc(C)c(C(=O)N(C)CCN(C)C(=O)c2[nH]c(C)cc2C)[nH]1	-6.06%
CN1CCC(Nc2cc(Cl)ccc2OCC(F)(F)F)C1=O (stereo unspecified)	-1.29%
Cc1sc(C(=O)N(C)S(C)(=O)=O)cc1-c1ccc(F)cc1	-2.76%
Cc1sc(C(=O)NS(C)(=O)=O)cc1-c1ccc(F)cc1	-4.18%
NC(=O)c1ccc(NC2CCOC3(CCCC3)C2)nn1 (stereo unspecified)	17.2%
Cc1c(NC(=O)N(C)CCn2cnnc2)cccc1OC1CCCC1	-4.56%
Cc1cnc(N2CCN(C(C)C(N)=O)CC2)nc1 (stereo unspecified)	-1.41%
CCCOc1cc(CNC(=O)Nc2ccccn2)ccn1	45.7%
CCNC(=O)CN1CCc2c(Br)ccc(F)c2C1	5.62%
O=C(NCCN1CCOCC1)NCc1cccnc1-n1cccn1	-2.89%
O=C(CCC(=O)N1CCOCC1)NCc1cccnc1-n1cccn1	1.46%
Cc1nnc(NCC(c2cccs2)N2CCCC2)c(C#N)c1C (stereo unspecified)	-2.36%
CC(C)N(CC(N)=O)CC(=O)NCCc1c(F)cccc1F	-1.87%
Cc1ccccc1C1CCN(C(=O)CCNC(=O)C(C)(C)C)C1 (stereo unspecified)	-1.33%
CC(Cc1c(F)cccc1F)NC(=O)CSCC(N)=O (stereo unspecified)	12.1%
Cc1ccc(NS(=O)(=O)c2cccc(C#N)c2)c(CN(C)C)c1	0.936%
Cc1ccccc1CNC(Cn1cncn1)c1ccccc1 (stereo unspecified)	1.75%
CCSCCC(C)N(C)C(=O)c1cc(C)on1 (stereo unspecified)	-3.26%

SMILES	cytotoxicity at 70.5 h
Cc1cc(C(=O)NC(CC(C)C)C(=O)Nc2cc[nH]n2)c(C)o1 (stereo unspecified)	0.859%
CC(C)CC(NC(=O)c1cnn(C)c1)C(=O)Nc1cc[nH]n1 (stereo unspecified)	0.0249%
N#Cc1c(Cl)nsc1NCc1ccc(N2CCC(CO)CC2)cc1	-0.689%
CC(C)(C)n1ncc2c(=O)[nH]c(N3CCC4(CCCCC4)C3)nc21	-2.75%
Cc1nn(C)cc1C(=O)NC(CC(C)C)C(=O)Nc1cc[nH]n1 (stereo unspecified)	12.6%
COCCOCCC(=O)N1CCC(c2ccccc2C)C1 (stereo unspecified)	-4.21%
CCSCCC(C)N(C)C(=O)c1cc(C)no1 (stereo unspecified)	-2.61%
Cc1ccc(NCc2ccc(C#N)cc2)c(CN(C)C)c1	15.8%
Cc1ccc(S(=O)(=O)NCCNC(=O)c2cncnc2C)cc1	-2.92%
Fc1cc(CN2CCOC3(CCOCC3)C2)ccc1OC(F)F	-3.49%
COc1cc(C(C)NCc2ncccc2C)ccc1SC(F)F (stereo unspecified)	52.4%
CN(C)C1Cc2ccccc2N(S(=O)(=O)c2ccccc2C#N)C1 (stereo unspecified)	34.1%
COc1cc(OC)cc(N2CCC(NCc3occc3C)C2=O)c1 (stereo unspecified)	31%
COc1cc(OC)cc(N2CCC(NCc3ccsc3)C2=O)c1 (stereo unspecified)	33.1%
NC(=O)CCN(C(=O)CSc1ccc(F)cc1)c1ccc(F)cc1	30.2%
COc1ccc(N(CCC(N)=O)C(=O)CSc2ccc(Cl)cc2)cc1	-0.942%
c1nc(CCC2CCCCN2)cc(N2CCCC2)n1 (stereo unspecified)	1.23%
c1nc(CCC2CCCN2)cc(N2CCCCCC2)n1 (stereo unspecified)	0.142%
c1cc(CNCc2ccc(Cn3cncn3)cc2)c2c(c1)OCCO2	-11.4%
c1cc(CNCc2cccc3c2OCCCO3)cc(Cn2cncn2)c1	-8.37%
